Experimental data: publication PMC5855688, “BC-Box Motif-Mediated Neuronal Differentiation of Somatic Stem Cells” (International Journal of Molecular Sciences, 2018)

Key:
elongin C = experiment: Immunoprecipitation with anti-elongin C, immunoblot anti-FITC; format: binding, rat; conditions: FITC-conjugated peptides, Figure 3C, difference p < 0.001
Method: (§1) For neuronal differentiation, cells were dissociated into a single-cell suspension by use of a Pasteur pipette and re-suspended into a concentration of 50,000 cells/mL in DMEM/F12 without serum, neurotrophic factors or growth factors. Then, the cells were cultured on poly-L-lysine-coated dishes or cover glasses, and the synthesized peptides at concentrations from 1 to 5 μM were added to the culture medium and delivered into the cells. Three days or more later, the cells were used for morphological, immunocytochemical, immunohistochemical, electrophysiological and immunoprecipitation studies, as well as for Western blot analysis.
Cultured cells (1 × 10^6) were washed with ice-cold PBS and lysed in RIPA lysis buffer (Upstate, Charlottesville, VA, USA). The total protein was extracted from the cells, and the total protein concentration of each lysate was adjusted to 1 mg/mL. The lysates were immunoprecipitated with anti- elongin C antibody (Santa Cruz, San Diego, CA, USA) diluted at 1:500 by using μMACS Protein A Microbeads (Miltenyi Biotec, Bergisch Gladbach, Germany). The immunoprecipitates were analyzed by SDS/gradient polyacrylamide gel and Western blotting with anti-FITC antibody (Santa Cruz, San Diego, CA, USA) diluted 1:500. Immunolabeled bands were detected by using enhanced chemiluminescence reagents (Amersham Biosciences Corp., Piscataway, NJ, USA). Images were analyzed with LAS-1000 (Fujifilm), and the density of the bands was determined by using Image Gauge software (Fujifilm).

[1] = test system: skin-derived precursors (SKPs); experiment: Western blot analysis of NFH protein; format: cell-based, rat (neonate Wistar); conditions: peptides at 1 to 5 μM; for NFH protein amount / band: three days after treatment, Figure 3B, less than VHL(157–171): VHL(157–168) p < 0.01, TAT p < 0.001
Method: (§2) Rodent skin-derived precursor cells (SKPs), which can differentiate to neurons, were used. SKPs were previously isolated from the back dermis of neonate Wistar rats by the authors. These cells were cultured in growth medium composed of DMEM/F12 (1:1; Gibco, Grand Island, NY, USA) containing 2% B27 supplement (Gibco), 20 ng/mL epidermal growth factor (EGF; Upstate Biotechnology, Lake Placid, NY, USA), and 40 ng/mL bFGF (PeproTech EC Ltd., Rocky Hill, NJ, USA) in a humidified incubator at 37 °C with 5% CO2. The floating clusters of cultured cells were centrifuged and dissociated into a single-cell suspension by use of a Pasteur pipette with a flame-polished tip. These single cells were then re-suspended into at a concentration of 50,000 cells/mL for passage or experiments.
as §1
(§3) Cultured cells were washed 3 times in cold PBS and then scraped into ice-cold PBS. After incubation on ice for 10 min, the cells were lysed with lysis buffer and centrifuged, after which the supernatants were collected. Each sample was separated by SDS-PAGE under reducing conditions and transferred electrophoretically to nitrocellulose filters. Non-specific binding of antibody was blocked by incubation with 5% donkey serum for 1 h. Western blots were probed with anti-MAP2 antibody, anti-NFH antibody, anti-ChAT antibody, anti-GAD antibody, anti-rhodopsin antibody, anti-TH antibody, and anti-elongin C antibody (Santa Cruz, San Diego, CA, USA) followed by horseradish peroxidase-conjugated secondary antibodies. Protein bands were detected by using a chemical luminescence detection system (ECL Plus Western Blotting Reagent Pack, Amersham, Hemel Hempstead, UK). Images were analyzed with LAS-1000 (Fujifilm, Tokyo, Japan), and the density of the bands was determined by using Image Gauge software (Fujifilm).

[2] = test system: skin-derived precursors (SKPs); experiment: Neurite outgrowth / morphological evaluation of neuronal differentiation; format: cell-based, rat (neonate Wistar); conditions: for Morphological change: phase-contrast microscopy, Figure 1E
Method: as §2, §1
Neurite outgrowth with length exceeding the diameter of the neuronal soma is often assessed as a morphological index of neuronal differentiation. After a single-cell suspension was made by pipetting, the cells were cultured in DMEN/F12 medium alone at 37 °C in a 5% CO2 incubator. Thereafter, neurite outgrowth was evaluated with the following 4 levels: +++, for above 50% of the cells showing neurite outgrowth; ++, for 20–50% with neurite outgrowth; +, for 5–19% having neurite outgrowth; and −, for below 5% of the cells with neurite outgrowth.

[3] = test system: skin-derived precursors (SKPs); experiment: Immunocytochemistry with anti-Neurofilament-H (NFH) antibody; format: cell-based, rat (neonate Wistar); conditions: peptides at 1 to 5 μM; for Percentage of NFH-positive cells: immunocytochemistry, mean ± SEM, vs VHL(157–171): p < 0.01 for VHL(157–168), p < 0.005 for TAT
Method: as §2, §1
Cultured cells were fixed with 4% paraformaldehyde in PBS (Phosphate buffered saline) for 10 min at room temperature. Cells were incubated for 1 h at room temperature with primary antibodies. Antibodies against anti-MAP2 antibody (Sigma-Aldrich, St. Louis, MO, USA), anti-Neurofilment-H (NFH) antibody (Sigma-Aldrich), anti-NeuN antibody (Merk Millipore, Billerica, MA, USA), anti-GFAP antibody (DAKO, Santa Clara, CA, USA), anti-tyrosine hydroxylase (TH) antibody (Merk Millipore, Billerica, MA, USA), anti-choline acetyl transferase (ChAT) antibody (Abbiotec, San Diego, CA, USA), anti-glutamic acid decaboxylase (GAD) antibody (Enzo Life Sciences, Flamingdale, NY, USA), and anti-rhodopsin antibody (Santa Cruz, San Diego, CA, USA) were used. […] Nuclear counterstaining was done with DAPI (Molecular Probes, Eugene, OR, USA) or TO-PRO-3 (Molecular Probes), and observations were made with a fluorescence microscope system (FV300, Olympus, Tokyo, Japan). We counted the number of immuno-positive cells with a given antibody in 4 to 6 random non-overlapping visual fields (50–200 cells per field) in each experiment. […] The degree of positivity was expressed as the rate of immuno-positive cells to the total number of nuclei stained with DAP1 or TO-PRO-3.

elongin BC = molecular target: T1, elongin BC (Homo sapiens, UniProt Q15369+Q15370); experiment: Isothermal titration calorimetry (ITC); format: binding
T1 construct: made in house; host or cells: E. coli BL21 (DE3), pCDFDuet-1
Method: In order to determine the crucial peptide sequence for elongin BC binding by isothemal titration caloritetry (ITC), recombinant proteins of elongin B and elongin C were prepared as follows. […] For purification, cell pellets were lysed by sonication in buffer A (20 mM Tris-HCl, pH 8.0, 0.5 M NaCl, 10 mM imidazole), and the soluble fraction was loaded onto Ni-NTA resin (Qiagen, Venlo, Netherlands) and eluted with buffer B (20 mM Tris-HCl (pH 8.0), 0.5 M NaCl, 250 mM imidazole). Eluted proteins were then loaded onto a Mono Q column followed by a Superdex 75 10/300 GL column (GE Healthcare, Chicago, IL, USA). For the ITC experiments, the elongin BC solution was exchanged with buffer C (20 mM HEPES-NaOH (pH 8.0), 150 mM NaCl) by using size-exclusion chromatography. Assays to assess the binding of peptides to elongin BC were performed by using a MicroCal iTC200 isothermal titration calorimeter (GE Healthcare, Chicago, IL, USA). […] The concentration of elongin BC was adjusted to a final one of 35 μM and injected into the sample cell (204 μL). One mM peptide was titrated into the protein solution as 40 consecutive 1.0-μL aliquots at 120-s intervals at 25 °C. The first injection volume was 0.4 μL, and the observed thermal peak was excluded from the data analyses. Duplicate experiments were performed independently. […] The KD values were calculated from duplicate thermograms.

STAT3 = experiment: Western blotting of STAT3 before and after peptide treatment; format: cell-based, rat; conditions: Western blot, Figure 5B, p < 0.01
rat brain = experiment: Immunohistochemistry (NeuN) of transplanted peptide-treated cells in rat brain; format: in vivo, rat (Wistar); conditions: 1 × 10^5 peptide-treated cells transplanted into rat brain, 6 weeks; mean ± SEM; vs VHL(157–171): p < 0.01 for VHL(157–168), p < 0.005 for TAT
Method: To evaluate neuronal differentiation of transplanted cells in rat brains, immunohistochemical study was performed as described previously. Before grafting, cells were preincubated with red fluorescence PKH26PCL (Sigma, St. Louis, MO, USA). […] Rats were anesthetized with isoflurane before surgery, and 1 × 10^5 cells were transplanted into rat brain. The rats were perfused with periodate-lysine-paraformaldehyde solution 6 weeks after the transplantation. Their brains were subsequently dissected and postfixed in the same medium for 2 h, cryopreserved in 30% sucrose for 12 h, and then embedded in Tissue Tek OCT compound (Sakura, Tokyo, Japan). Cryostat coronal sections of 14-μm thickness were prepared for immunohistochemistry. For immunostaining, sections were incubated with primary antibody, anti-NeuN antibody, and then incubated in secondary antibody, FITC-conjugated anti-rabbit IgG. Counterstaining was done with DAPI. In immohistochemistry, observations were made with a confocal immunofluorescence microscope (FV300, Olympus, Tokyo, Japan).
Wistar rats (Clea, Tokyo, Japan) were used in all experiments and housed in a temperature controlled room on a 12-h day/night cycle with free access to food and water. All animal experimental procedures were approved by the Institutional Animal Use Committee of Yokohama City University (ID 153, 1 April 2015) and were in accordance with National Institutes of Health guidelines for care and use of laboratory animals.

JAK2 = experiment: Western blotting of JAK2 before and after peptide treatment; format: cell-based, rat; conditions: Western blot, Figure 5B, p < 0.01
[4] = test system: skin-derived precursors (SKPs); experiment: Whole-cell patch-clamp electrophysiology; format: cell-based, rat (neonate Wistar); conditions: five days after peptide addition at 3 μM, holding potential −80 mV, steps of 20 mV from −100 to 100 mV, VHL(157–168) vs VHL(157–171) p < 0.01
Method: as §2, §1
To record fast sodium and delayed rectifier potassium currents, we prepared extracellular and intracellular solutions as described previously. […] For recordings and data analysis we used CEZ-2300 (Nihon Kohden, Tokyo, Japan) and pCLAMP 6.0 software (Axon Instruments, Burlingame, CA, USA). Linear components of leak and capacitive currents were reduced by analogue circuitry and then canceled by the P/N method. Signals were sampled every 20 μs, and currents were filtered at 5 kHz. Data were additionally processed with Origin 5.0 (Microcal, Northhampton, MA, USA).

[5] = test system: skin-derived precursors (SKPs); experiment: Western blot analysis of neuronal markers in NDD peptide-treated cells; format: cell-based, rat (neonate Wistar); conditions: Figure 6A
Method: as §2, §1, §3

[6] = test system: skin-derived precursors (SKPs); experiment: Immunocytochemistry of neuronal markers in NDD peptide-treated cells; format: cell-based, rat (neonate Wistar); conditions: Figure 6B
Method: as §2, §1
Cultured cells were fixed with 4% paraformaldehyde in PBS (Phosphate buffered saline) for 10 min at room temperature. Cells were incubated for 1 h at room temperature with primary antibodies. Antibodies against anti-MAP2 antibody (Sigma-Aldrich, St. Louis, MO, USA), anti-Neurofilment-H (NFH) antibody (Sigma-Aldrich), anti-NeuN antibody (Merk Millipore, Billerica, MA, USA), anti-GFAP antibody (DAKO, Santa Clara, CA, USA), anti-tyrosine hydroxylase (TH) antibody (Merk Millipore, Billerica, MA, USA), anti-choline acetyl transferase (ChAT) antibody (Abbiotec, San Diego, CA, USA), anti-glutamic acid decaboxylase (GAD) antibody (Enzo Life Sciences, Flamingdale, NY, USA), and anti-rhodopsin antibody (Santa Cruz, San Diego, CA, USA) were used. After incubation with primary antibody, the cells were incubated for 1 h with secondary antibody, either rhodamine-conjugated anti-mouse IgG (Sigma-Aldrich) or FITC-conjugated anti-rabbit IgG (Sigma-Aldrich). Nuclear counterstaining was done with DAPI (Molecular Probes, Eugene, OR, USA) or TO-PRO-3 (Molecular Probes), and observations were made with a fluorescence microscope system (FV300, Olympus, Tokyo, Japan). We counted the number of immuno-positive cells with a given antibody in 4 to 6 random non-overlapping visual fields (50–200 cells per field) in each experiment. At least 2 experiments were performed per condition. The degree of positivity was expressed as the rate of immuno-positive cells to the total number of nuclei stained with DAP1 or TO-PRO-3.

[7] = Figure 2A, rates of cells having neurites, peptides at 1 to 5 μM, VHL157–168 vs VHL(157–171) p < 0.005
[8] = BC-box motif plus five C-terminal amino acids peptides, delivered with TAT PTD, 1 to 5 μM

T1 sequence (Q15369 17-112): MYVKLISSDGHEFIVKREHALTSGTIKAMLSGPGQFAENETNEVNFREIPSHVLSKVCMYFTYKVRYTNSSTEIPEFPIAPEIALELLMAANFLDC
T1 sequence (Q15370 whole entry partner): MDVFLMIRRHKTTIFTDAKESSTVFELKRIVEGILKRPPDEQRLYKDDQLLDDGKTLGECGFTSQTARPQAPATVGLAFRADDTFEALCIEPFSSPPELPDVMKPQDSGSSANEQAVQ

## YARAAARQARATLKERCLQVVRSLVK [FITC-VHL(157–171), FITC-tagged VHL(157–171) peptide]
Elongin C
  Binding to elongin C (FITC band after anti-elongin C immunoprecipitation): A distinct band for FITC
Elongin C; listed as FITC-conjugated VHL(157–171)
  Binding to elongin C (FITC band after anti-elongin C immunoprecipitation): distinctly bound to elongin C

## YARAAARQARATLKERCLQVVRS [FITC-VHL(157–168), FITC-tagged VHL(157–168) peptide]
Elongin C
  Binding to elongin C (FITC band after anti-elongin C immunoprecipitation): a faint band for FITC
Elongin C; listed as FITC-conjugated VHL(157–168)
  Binding to elongin C (FITC band after anti-elongin C immunoprecipitation): significantly less did

## YARAAARQARAVYTLKERCLQVVRSLVK [VHL(155–171), pVHL fragment conjugated with PTD]
[1]; ten divided pVHL sequences compared, Figure 1B
  NFH protein expression: greatest expression
[2]; peptides at 1 to 5 μM
  Morphological change: assumed a neuron-like morphology
[2]; ten divided pVHL sequences compared, Figure 1D, peptides at 1 to 5 μM, three days or more
  Rate of cells having neurites: greatest rate
[3]; ten divided pVHL sequences compared, Figure 1C
  Rate of immunoreactivity for Neurofilament-H (NFH): greatest rate of immunoreactivity

## TLKERCLQVVRS [VHL157–168, VHL peptide without TAT, for ITC, synthesized by CS Bio Co]
Elongin BC; 25 °C, 20 mM HEPES-NaOH (pH 8.0), 150 mM NaCl, mean ± S.D. of two independent replicates
  ΔS: −8.54 ± 0.74 cal/mol/deg

## YARAAARQARAKERCLQVVRS [VHL(159–171), pVHL fragment conjugated with PTD]
[2]; [7]
  Neurite Outgrowth Activity: scarcely did
Elongin BC; two residues deleted from the N-terminus, p < 0.0001
  Elongin BC binding affinity: complete loss of elongin BC binding affinity

## YARAAARQARA [TAT, modified TAT protein transduction domain peptide, reference compound]
[1]
  NFH protein amount / band: a faint band
STAT3
  STAT3 degradation: Bands for JAK2 and STAT3 were found for pre-treated cells or TAT-treated cells more than post-treated cells
Rat brain
  Positive rates of NeuN: 3.2 ± 0.8%
[2]; [7]
  Neurite Outgrowth Activity: scarcely did
[2]; peptides at 1 to 5 μM
  Morphological change: no morphological change
JAK2
  JAK2 degradation: Bands for JAK2 and STAT3 were found for pre-treated cells or TAT-treated cells more than post-treated cells
[3]
  Percentage of NFH-positive cells: 6.9 ± 1.5%
[4]
  Voltage-gated outward K+ and inward Na+ currents: no current was elicited

## YARAAARQARATLKERCLQVVRS [VHL(157–168), BC-box motif plus two amino acids, conjugated with PTD]
[1]
  NFH protein amount / band: a less distinct band for NFH
Rat brain
  Positive rates of NeuN: 9.2 ± 1.8%
[2]; [7]
  Neurite Outgrowth Activity: significantly weaker neurite outgrowth activity than VHL(157–171)
[3]
  Percentage of NFH-positive cells: 10.1 ± 2.2%
[4]
  Voltage-gated outward K+ and inward Na+ currents: both significantly smaller outward potassium and inward Na^+ currents

## YARAAARQARATLLESSARTILHNRI [LRR-1 BC-box motif plus five amino acids]
[2]; [8]
  Neurite Outgrowth Activity: ++ (20–50% with neurite outgrowth)
[5]; glutamic acid decarboxylase
  Expression of GAD: expressed highly
[6]
  Rate of GAD-positive (GABAnergic neuron-like) cells: high rates of positive cells
  Rate of TH-positive (dopaminergic neuron-like) cells: high rates of positive cells

## YARAAARQARASLQHLCRFRIRQLVR [SOCS7 BC-box motif plus five amino acids]
[2]; [8]
  Neurite Outgrowth Activity: +++ (above 50% of the cells showing neurite outgrowth)
[5]; choline acetyltransferase
  Expression of ChAT: high
[5]; tyrosine hydroxylase
  Expression of TH: pronounced
[6]
  Rate of ChAT-positive (cholinergic neuron-like) cells: high rates of positive cells
